# System: influenza A (H1N1)
# Assay: Influenza virus mouse model, feed supplemented with N5G
# Type: in vivo
# Description: The overall purpose of the study was to determine whether the N5G nutritional supplement has the ability to have significant impact on clinical disease outcomes caused by influenza virus in a mouse animal model.
# The experimental design included adherence to a strict feeding schedule, which included 30 days of acclimation of mice to a defined base feed (AIN-93M) provided by Purina TestDiet, Inc. Control animals remained continuously fed with the defined base feed, while the experimental mouse group was fed with the base feed supplemented with 0.35% of N5G.
# Experimental and control mouse groups were infected intranasally with 107.5 TCID50 influenza A (H1N1) with each mouse receiving 5iL of viral inoculum per nostril. The experimental parameters followed during the study were: 1) mouse weight changes; 2) food intake changes; 3) clinical signs of disease; 4) lung tissue pathology; 5) lung consolidation scores; 6) changes in viral loads.
# Overall, the experimental design was executed without any major obstacles. As expected, there was minor occasional wasting of feed in some cages (mice chewed on feed which was dropped on the bottom of the cage). In every instance noted on daily observations, the residual feed was weighed, but it was excluded in any statistical calculations as well as in the calculation of baseline feed intake.
# As expected, all influenza infected mice developed clinical signs of disease starting 2 days post infection. Clinical signs included: 1) ruffled fur, 2) inactivity, 3) hunching, 4) death, 5) weight loss, and 6) loss of appetite.
# Clinical signs 1-4 were scored by two independent observers using a scale of 0-5. The cumulative scores were plotted and statistically analyzed. Statistical analyses were performed using SAS v.9.1.3. An analysis of variance (ANOVA) of a repeated measures design was calculated in a split-plot arrangement of treatments, with the treatment group on the main plot, and the subplot including day and treatment by day interactions. Interaction of pairwise comparisons of least square means was performed with a pairwise t-test with pre-planned comparisons. This statistical methodology was used for all comparisons in the study.
# D. The most important aspect of influenza infections is the resultant lung immunopathology. Typically, viral replication as well as infiltration of lymphocytes causes substantial damage to lung tissues. In fact, it is believed that infiltration of lymphocytes and their negative effects on lungs tissues is the most important parameter of influenza-related morbidity and mortality in humans. Consequently, particular care was taken to examine the tissues of mice for signs of histopathological changes. The following evaluation criteria were utilized to score these changes: 1) Lung consolidation scores (LCS); 2) Histopathological scores (HS). LCS were rated as follows: grade 1: no plum coloration; grade 2: minimum plum coloration; grade 3: medium plum coloration; grade 4: maximum plum coloration. HS were rated as follows: Grade 0: no overt histological change; grade 1+: only bronchial/bronchiolar and/or peri-bronchial/bronchiolar/vascular changes; grade 2+: 1-10% pulmonary parenchyma affected; grade 3+: 11-30% pulmonary parenchyma affected; grade 4:+: 31-50% pulmonary parenchyma affected; grade 5+: greater than 50% pulmonary parenchyma affected.
smiles,measurement,setting,value
"O=C(CO)N[C@H]1[C@H]([C@H](O)[C@H](O)CO)O[C@](O)(C(=O)O)C[C@@H]1O [NGNA, n-glycolylneuraminic acid]",Viral titers from lung homogenates,"mice, 2 days post infection, treated and untreated",less than 100 plaque forming units (PFU) per 250iL of homogenate
same,"Clinical signs 1-4 scores (ruffled fur, inactivity, hunching, death), treated versus untreated","mice, base feed with 0.35% N5G, days 6-8 post infection, FIG. 3",Statistically significant differences
same,"Histopathological scores, treated versus untreated","mice, day 6 post infection, grades 0 to 5+, FIG. 7",statistically significant difference
same,"Viral titers from lung homogenates, treated versus untreated","mice, days 2, 4, 6, 8 and 21 post infection, one mouse per group per time point",No significant differences
same,"% change in mouse weights, untreated versus treated","mice, days 3-9 post infection, FIG. 5",highly significant reduction in body weights was observed in the control mouse group
same,% daily feed intake,"mice, days 5-6 post infection, FIG. 4, group with the loss not stated",statistically significant loss of appetite
same,"Lung consolidation scores, treated versus untreated","mice, grades 1-4, FIG. 6","“trend” toward a healthier status of treated versus untreated mice. However, there results were not statistically significant"
same,Effect on ameliorating clinical symptoms and adverse pathological implication of influenza infection,"mouse experimental model, overall conclusion",significant effect

# Reference: US11672814B2, “NGNA compositions and methods of use” (priority 2008, dated 2023)
